Measured values as given in ChEMBL document CHEMBL5335795, “Development of potent isoflavone-based formyl peptide receptor 1 (FPR1) antagonists and their effects in gastric cancer cell models” (Eur J Med Chem, 2023).
Calls of active or inactive are those of the source. The calls are words filed in the database; no cut-off is given here.

How the values were obtained:
[1] = target: T1, N-formyl peptide receptor 2 (Homo sapiens) (UniProt P25090); test: Antagonist activity against human FPR2 expressed in human HL-60 cells assessed as inhibition of WKYMVM-induced calcium mobilization preincubated for 10 mins followed by WKYMVM addition and measured every 5s for 240s by Fluo4AM dye based scanning fluorimetric analysis; assay type: functional, cell-based; settings: time 840.0 sec
T1 sequence (whole entry): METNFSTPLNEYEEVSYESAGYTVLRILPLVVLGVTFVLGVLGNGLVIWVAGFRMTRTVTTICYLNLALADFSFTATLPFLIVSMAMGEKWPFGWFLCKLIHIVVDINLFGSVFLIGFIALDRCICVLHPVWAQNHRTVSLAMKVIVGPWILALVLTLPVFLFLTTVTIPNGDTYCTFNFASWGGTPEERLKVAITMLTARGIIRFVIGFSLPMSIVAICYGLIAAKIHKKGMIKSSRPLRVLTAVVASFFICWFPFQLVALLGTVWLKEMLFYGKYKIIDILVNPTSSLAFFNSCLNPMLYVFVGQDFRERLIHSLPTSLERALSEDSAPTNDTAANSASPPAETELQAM

fMet-Leu-Phe receptor [2] = target: T2, fMet-Leu-Phe receptor (Homo sapiens, UniProt P21462); test: Antagonist activity against human FPR1 expressed in human HL-60 cells assessed as inhibition of fMLF-induced calcium mobilization preincubated for 30 mins followed by fMLF addition and measured every 5s for 240s by Fluo4AM dye based scanning fluorimetric analysis; assay type: functional, cell-based
T2 sequence (P21462 whole entry): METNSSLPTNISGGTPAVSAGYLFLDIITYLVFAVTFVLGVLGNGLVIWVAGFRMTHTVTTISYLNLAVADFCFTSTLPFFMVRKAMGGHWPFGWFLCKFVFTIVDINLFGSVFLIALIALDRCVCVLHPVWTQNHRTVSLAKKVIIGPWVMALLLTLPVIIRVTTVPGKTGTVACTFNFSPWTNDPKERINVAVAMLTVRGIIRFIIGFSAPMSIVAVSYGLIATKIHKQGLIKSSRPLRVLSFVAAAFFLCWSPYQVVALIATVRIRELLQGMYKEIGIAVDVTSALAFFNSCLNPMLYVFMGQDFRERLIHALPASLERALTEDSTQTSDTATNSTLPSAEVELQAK

[3] = Metabolic stability of the compound in rat liver microsomes assessed as parent compound remaining at 10 uM preincubated for 10 mins followed by NADPH addition and measured after 30 mins by LC-MS analysis; assay type: ADME, Microsome; settings: time 40 min, read-out: Stability
NCI-N87 [4] = test: Induction of apoptosis in human NCI-N87 cells assessed as viable cells at 5 uM measured after 48 hrs by Muse Annexin V cytofluorimetric analysis (reference value: 69.9%); assay type: functional; settings: read-out: Activity
NCI-N87 [5] = test: Induction of apoptosis in human NCI-N87 cells assessed as viable cells at 5 uM measured after 48 hrs in presence of FPR1 antagonist, fMLF by Muse Annexin V cytofluorimetric analysis (reference value: […]%); assay type: functional; settings: read-out: Activity
AGS [6] = test: Induction of apoptosis in human AGS cells assessed as viable cells at 5 uM measured after 48 hrs in presence of FPR1 antagonist, fMLF by Muse Annexin V cytofluorimetric analysis (reference value: 87.1%); assay type: functional; settings: read-out: Activity
AGS [7] = test: Induction of apoptosis in human AGS cells assessed as viable cells at 5 uM measured after 48 hrs by Muse Annexin V cytofluorimetric analysis (reference value: 85.9%); assay type: functional; settings: read-out: Activity
fMet-Leu-Phe receptor [8] = target: T2, fMet-Leu-Phe receptor; test: Antagonist activity against human FPR1 expressed in human HL-60 cells assessed as inhibition of fMLF-induced calcium mobilization preincubated for 10 mins followed by fMLF addition and measured every 5s for 240s by Fluo4AM dye based scanning fluorimetric analysis; assay type: functional, cell-based

For `CCCCCCC(=O)Oc1cc2oc(C)c(-c3cccc(OC)c3)c(=O)c2cc1C`, the inhibition [1] was “inactive”.
In the case of `COc1ccccc1-c1c(C(F)(F)F)oc2cc(OC(=O)c3ccco3)ccc2c1=O`, the IC50 (fMet-Leu-Phe receptor [2]) is reported as 440 nM.
In the case of `CCCc1cc2c(=O)c(-c3ccccc3OC)c(C)oc2cc1OC(=O)N(C)C`, the inhibition [1] is reported as “inactive”.
With `CCCCCCc1cc2c(=O)c(-c3cccc(OC)c3)c(C(F)(F)F)oc2cc1OC(C)=O` the inhibition [1] was “inactive”.
`CCCCCCc1cc2c(=O)c(-c3nc4ccccc4n3C)c(C)oc2cc1OC(C)=O` gave an IC50 (fMet-Leu-Phe receptor [2]) of 310 nM.
Work on `Cc1oc2cc(OC(=O)c3ccco3)ccc2c(=O)c1-c1nc2ccccc2n1C` yielded an IC50 (fMet-Leu-Phe receptor [2]) of 3100 nM.
With `CCCCc1cc2c(=O)c(-c3ccccc3OC)c(C)oc2cc1OC(C)=O` the inhibition [1] was “inactive”.
`CCCCCCc1cc2c(=O)c(-c3ccccc3OC)c(C(F)(F)F)oc2cc1OC(C)=O` gave a remaining at 0.5 h, 10 µM [3] of 0%.
Compound `CCCCCCc1cc2c(=O)c(-c3ccccc3OC)c(C)oc2cc1OC(C)=O` has a viability at 5 µM (NCI-N87 [4]) of 45.1%, a remaining at 0.5 h, 10 µM [3] of 0% and a viability at 5 µM (NCI-N87 [5]) of 45.5%. For the same compound, the viability at 5 µM (AGS [6]) was 46.9% and the viability at 5 µM (AGS [7]) was 52%.
`COc1ccccc1-c1c(C)oc2cc(OC(=O)c3ccco3)ccc2c1=O` gave an IC50 (fMet-Leu-Phe receptor [2]) of 1900 nM.
Compound `CCCCCCC(=O)Oc1cc2oc(C)c(-c3ccccc3OC)c(=O)c2cc1C` has a remaining at 0.5 h, 10 µM [3] of 0%.
In the case of `CCCCCc1cc2c(=O)c(-c3ccccc3OC)c(C)oc2cc1OC(C)=O`, the inhibition [1] is reported as “inactive”.
Compound `CCc1cc2c(=O)c(-c3nc4ccccc4n3C)c(C)oc2cc1OC(C)=O` has an IC50 (fMet-Leu-Phe receptor [2]) of 1400 nM.
For `CCCc1cc2c(=O)c(-c3cccc(OC)c3)c(C)oc2cc1OC(C)=O`, the inhibition [1] was “inactive”.
In the case of `CCCCCCc1cc2c(=O)c(-c3ccccc3OC)c(C)oc2cc1OC(=O)N(C)C`, the inhibition [1] is reported as “inactive” and the IC50 (fMet-Leu-Phe receptor [8]) is reported as “Not Active”.
